{
  "source": "paper PMC3361616",
  "about": "(European Journal of Medicinal Chemistry, 2012)",
  "key": {"5HT1A receptor": {"target": "T1, 5HT1A receptor (Homo sapiens, UniProt P08908)", "T1 sequence (P08908 1-422)": "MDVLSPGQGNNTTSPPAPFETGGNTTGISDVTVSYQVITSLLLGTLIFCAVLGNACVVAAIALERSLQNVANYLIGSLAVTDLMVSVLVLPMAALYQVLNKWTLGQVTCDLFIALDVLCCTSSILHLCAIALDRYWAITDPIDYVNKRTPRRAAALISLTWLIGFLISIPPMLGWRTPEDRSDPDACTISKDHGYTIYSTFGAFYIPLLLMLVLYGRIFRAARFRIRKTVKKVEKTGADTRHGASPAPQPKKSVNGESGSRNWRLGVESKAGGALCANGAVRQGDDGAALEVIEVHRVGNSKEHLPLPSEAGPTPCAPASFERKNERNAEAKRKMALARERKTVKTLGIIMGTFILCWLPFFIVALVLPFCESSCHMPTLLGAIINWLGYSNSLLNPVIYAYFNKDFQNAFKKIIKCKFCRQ", "test": "NIMH-PDSP radioligand binding, 5HT1A", "conditions": "for fold increase in binding affinity to the 5HT1A receptor: over compound 8"}, "[1]": {"target": "serotonin transporter (SERT) (Homo sapiens, UniProt P31645)", "sequence (P31645 whole entry, species assumed)": "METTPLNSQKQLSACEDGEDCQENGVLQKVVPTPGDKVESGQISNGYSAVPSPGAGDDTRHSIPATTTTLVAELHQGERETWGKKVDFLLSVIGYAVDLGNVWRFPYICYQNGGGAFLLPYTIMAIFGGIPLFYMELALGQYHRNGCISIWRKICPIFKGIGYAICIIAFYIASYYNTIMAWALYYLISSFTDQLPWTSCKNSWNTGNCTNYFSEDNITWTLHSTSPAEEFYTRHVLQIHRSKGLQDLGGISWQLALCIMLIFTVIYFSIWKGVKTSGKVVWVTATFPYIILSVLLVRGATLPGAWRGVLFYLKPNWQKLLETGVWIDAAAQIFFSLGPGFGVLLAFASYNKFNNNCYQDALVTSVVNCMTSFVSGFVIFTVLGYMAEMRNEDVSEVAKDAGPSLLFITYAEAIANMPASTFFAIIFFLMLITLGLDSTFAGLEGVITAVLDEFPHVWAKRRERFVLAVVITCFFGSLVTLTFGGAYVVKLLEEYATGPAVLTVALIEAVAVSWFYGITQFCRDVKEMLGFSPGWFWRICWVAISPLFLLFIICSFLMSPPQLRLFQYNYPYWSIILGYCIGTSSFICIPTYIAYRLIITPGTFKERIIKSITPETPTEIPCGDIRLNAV", "test": "NIMH-PDSP radioligand binding, SERT"}, "D4 receptor (DAD4)": {"target": "T2, D4 receptor (DAD4) (Homo sapiens, UniProt P21917)", "T2 sequence (P21917 1-419)": "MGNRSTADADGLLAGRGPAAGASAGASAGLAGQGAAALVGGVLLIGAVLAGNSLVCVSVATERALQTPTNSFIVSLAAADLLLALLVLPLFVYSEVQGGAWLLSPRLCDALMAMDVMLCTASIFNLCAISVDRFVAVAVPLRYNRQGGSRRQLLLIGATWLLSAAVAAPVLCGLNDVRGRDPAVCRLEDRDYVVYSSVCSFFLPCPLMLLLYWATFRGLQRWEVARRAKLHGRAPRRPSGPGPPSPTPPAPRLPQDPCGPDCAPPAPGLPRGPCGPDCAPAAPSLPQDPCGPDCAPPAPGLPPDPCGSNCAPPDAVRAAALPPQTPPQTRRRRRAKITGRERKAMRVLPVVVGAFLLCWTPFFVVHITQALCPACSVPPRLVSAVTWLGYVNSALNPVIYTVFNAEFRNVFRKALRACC", "test": "NIMH-PDSP radioligand binding, DAD4"}},
  "note": "Structures can show the parent of a compound that is named as a salt.",
  "data": [
    {"smiles": "c1ccc2c(c1)CCN(CCCCc1nc3ccccc3s1)C2", "note": "[Compound 11, 2-(4-Benzo[d]thiazol-2-yl-butyl)-1,2,3,4-tetrahydro-isoquinoline p-toluenesulfonate]", "values": [
      {"measurement": "fold increase in binding affinity to the 5HT1A receptor", "setting": "5HT1A receptor", "result": "about 18 fold"}
    ]},
    {"smiles": "Clc1ccc(N2CCN(CCCCc3nc4ccccc4s3)CC2)cc1", "note": "[Compound 8, 2-(4-(4-(4-Chlorophenyl)piperazin-1-yl)butyl)benzo[d]thiazole]", "values": [
      {"measurement": "fold decrease in binding at the SERT site", "setting": "[1]; compared with compound 4", "result": 2.6, "unit": "fold"},
      {"measurement": "fold increase in binding to the 5HT1A receptor", "setting": "5HT1A receptor; compared with compound 4", "result": "~3", "unit": "fold"}
    ]},
    {"smiles": "O=C(CCCCN1CCN(c2ccc(Cl)cc2)CC1)c1nc2ccccc2s1", "note": "[Compound 20, 1-(Benzo[d]thiazol-2-yl)-5-(4-(4-chlorophenyl)piperazin-1-yl)pentan-1-one hydrochloride]", "values": [
      {"measurement": "fold enhancement of binding to SERT", "setting": "[1]; compared with compound 8", "result": "over 2 fold"},
      {"measurement": "Ki", "setting": "D4 receptor (DAD4)", "result": "100 ± 10", "unit": "nM"},
      {"measurement": "fold increase in binding affinity to the 5HT1A receptor", "setting": "5HT1A receptor", "result": "over 3 fold"}
    ]},
    {"smiles": "O=C(CCCCN1CCC(c2ccccc2)CC1)c1nc2ccccc2s1", "note": "[Compound 23, 1-(Benzo[d]thiazol-2-yl)-5-(4-phenyl-piperidin-1-yl)-pentan-1-one hydrochloride]", "values": [
      {"measurement": "fold decrease in binding affinity at the 5HT1A receptor", "setting": "5HT1A receptor; compared with compound 22", "result": 2, "unit": "fold"}
    ]}
  ]
}
